Converted amounts (≈) assume the structure as drawn. “And” between values parts separate entries of the source, which are not always exact repeats. Equal entries are not always repeated. Where two headings read alike, the source gives them in different places.
Assays:
Format in all cases: cell-based
[1] = tested on: Escherichia coli (ATCC 10536); experiment: MBC determination
Procedure: (§1) After 24 hours of incubation, the colonies were counted.

[2] = tested on: Candida albicans (ATCC 10231); experiment: MBC determination
Procedure: as §1

[3] = tested on: Pseudomonas aeruginosa (ATCC 10145); experiment: MBC determination
Procedure: as §1

[4] = tested on: methicillin-resistant Staphylococcus aureus (ATCC 33591); experiment: MBC determination
Procedure: as §1

[5] = tested on: Escherichia coli (ATCC 10536); experiment: MIC determination by broth dilution
Procedure: (§2) The MICs were determined by the broth dilution method. […] The assays were performed in duplicate.

[6] = tested on: Candida albicans (ATCC 10231); experiment: MIC determination by broth dilution
Procedure: as §2

[7] = tested on: Pseudomonas aeruginosa (ATCC 10145); experiment: MIC determination by broth dilution
Procedure: as §2

[8] = tested on: methicillin-resistant Staphylococcus aureus (ATCC 33591); experiment: MIC determination by broth dilution
Procedure: as §2

[9] = compound alone, E. coli ATCC 10536
[10] = compound alone, C. albicans ATCC 10231
[11] = compound alone, P. aeruginosa (ATCC 10536 [sic])
[12] = compound alone, MRSA ATCC 33591
[13] = compound alone, E. coli ATCC 10536, 2 days at 37° C.
[14] = compound alone, C. albicans ATCC 10231, 2 days at 37° C.
[15] = compound alone, P. aeruginosa (ATCC 10536 [sic]), 2 days at 37° C.
[16] = compound alone, MRSA ATCC 33591, 2 days at 37° C.
[17] = Staphylococcus aureus, ATCC 33591 / MRSA, 48 h, compound alone, MRSA ATCC 33591, 2 days at 37° C., read-out: MIC

| Compound | MBC [1, 9] [µg/mL] | MBC [3, 11] [µg/mL] | MIC [5, 13] | MIC [7, 15] [µg/mL] | MIC [8, 16] [µg/mL] | MIC [8, 17] [µg/mL] | further results |
| --- | --- | --- | --- | --- | --- | --- | --- |
| polymyxin B [reference compound] | 3.13 | 6.25 | 3.13 µg/mL | 6.25 | 800 |  | MBC [2, 10]: 1600 µg/mL; MBC [4, 12]: 800 µg/mL; MIC [6, 14]: 800 µg/mL |
| C=CC/C=C\C/C=C\CCCCCCCc1cccc(O)c1C(=O)O [Anacardic Acid (15:3)] |  |  |  |  | 6.25 (≈ 0.0182 mM) |  |  |
| CCCCCCCCCCCCO [Dodecanol, n-dodecanol] |  |  |  |  |  | 80 (≈ 0.429 mM) |  |
| CCCCCCCCCCCO [Undecanol, n-undecanol] |  |  |  |  |  | 50 (≈ 0.29 mM) |  |
| Anacardic Acid |  |  |  |  | 6.25 |  |  |
| c1ccc2[nH]ccc2c1 [Indole, indole] |  |  |  |  |  |  | MBC ([1]; Escherichia coli, ATCC10536): 800 µg/mL (≈ 6.83 mM); MBC ([2]; Candida albicans, ATCC10231): 800 µg/mL (≈ 6.83 mM); MBC ([3]; Pseudomonas aeruginosa, ATCC 10145 / ATCC 10536): 800 µg/mL (≈ 6.83 mM); MBC ([4]; Staphylococcus aureus, ATCC 33591 / MRSA): 800 µg/mL (≈ 6.83 mM); MIC ([5]; Escherichia coli, ATCC10536, 48 h): 800 µg/mL (≈ 6.83 mM); MIC ([6]; Candida albicans, ATCC10231, 48 h): 400 µg/mL (≈ 3.41 mM); MIC ([7]; Pseudomonas aeruginosa, ATCC 10145 / ATCC 10536, 48 h): 400 µg/mL (≈ 3.41 mM); MIC ([8]; Staphylococcus aureus, ATCC 33591 / MRSA, 48 h): 800 µg/mL (≈ 6.83 mM) |
| COc1cccc(OC)c1C(=O)N[C@@H]1C(=O)N2[C@@H]1SC(C)(C)[C@@H]2C(=O)O [Methicillin, methicillin, reference compound] |  |  |  |  |  | 800 (≈ 2.1 mM) |  |
| CCCCCCCCCCCCCO [Tridecanol, n-tridecanol] |  |  |  |  |  | 50 (≈ 0.25 mM) |  |
| polymyxin E [reference compound] | 6.25 | 12.5 | 3.13 µg/mL | 6.25 |  |  | MBC [2, 10]: 1600 µg/mL; MIC [6, 14]: 1600 µg/mL |
| CCC/C=C/C=O [2-Hexenal, t-2-hexenal] | 400 (≈ 4.08 mM) | 400 (≈ 4.08 mM) | 200 µg/mL and 400 µg/mL | 200 (≈ 2.04 mM) | 400 (≈ 4.08 mM) |  | MBC [4, 12]: 800 µg/mL (≈ 8.15 mM) |
